# Test results reported in ChEMBL document CHEMBL4422658, “Calixarene-based phosphinic acids as inhibitors of protein tyrosine phosphatases” (Bioorg Med Chem Lett, 2019).
# Key:
# Homo sapiens [1] = organism: Homo sapiens; assay: Selectivity ratio of IC50 for recombinant human N-terminal GST-tagged TCPTP catalytic domain (2 to 315 residues) expressed in Escherichia coli to IC50 for recombinant human PTP1B expressed in Escherichia coli
# [2] = biological target: T1, Tyrosine-protein phosphatase non-receptor type 4 (Homo sapiens, UniProt P29074); assay: Inhibition of recombinant human N-terminal GST-tagged MEG1 catalytic domain (637 to 926 residues) expressed in Escherichia coli using […] as substrate preincubated with substrate for 5 mins followed by enzyme addition
# T1 sequence (P29074 whole entry): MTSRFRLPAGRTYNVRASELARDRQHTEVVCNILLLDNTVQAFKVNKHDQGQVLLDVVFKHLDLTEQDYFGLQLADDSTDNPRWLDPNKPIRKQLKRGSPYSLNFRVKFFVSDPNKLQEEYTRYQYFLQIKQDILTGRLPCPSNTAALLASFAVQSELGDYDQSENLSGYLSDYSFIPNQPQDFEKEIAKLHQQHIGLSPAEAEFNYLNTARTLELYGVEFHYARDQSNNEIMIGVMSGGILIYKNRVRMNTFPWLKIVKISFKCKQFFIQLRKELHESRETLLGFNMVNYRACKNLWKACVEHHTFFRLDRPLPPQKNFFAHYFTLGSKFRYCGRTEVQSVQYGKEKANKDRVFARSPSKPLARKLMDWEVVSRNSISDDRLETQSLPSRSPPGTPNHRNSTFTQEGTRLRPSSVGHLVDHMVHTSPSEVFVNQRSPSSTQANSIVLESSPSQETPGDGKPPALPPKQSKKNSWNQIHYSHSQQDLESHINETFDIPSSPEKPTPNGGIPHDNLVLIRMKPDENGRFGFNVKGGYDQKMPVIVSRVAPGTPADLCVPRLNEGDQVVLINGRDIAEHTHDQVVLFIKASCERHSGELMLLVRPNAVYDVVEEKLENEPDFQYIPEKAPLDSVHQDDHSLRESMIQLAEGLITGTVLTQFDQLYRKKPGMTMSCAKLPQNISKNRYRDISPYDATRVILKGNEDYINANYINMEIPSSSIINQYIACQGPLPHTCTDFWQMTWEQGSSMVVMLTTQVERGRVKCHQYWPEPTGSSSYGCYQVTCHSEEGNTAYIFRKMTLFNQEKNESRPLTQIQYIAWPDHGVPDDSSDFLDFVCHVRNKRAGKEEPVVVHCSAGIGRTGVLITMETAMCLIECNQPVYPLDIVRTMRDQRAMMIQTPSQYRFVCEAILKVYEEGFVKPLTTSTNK
# [3] = biological target: T2, Tyrosine-protein phosphatase non-receptor type 2 (Homo sapiens, UniProt P17706); assay: Inhibition of recombinant human N-terminal GST-tagged TCPTP catalytic domain (2 to 315 residues) expressed in Escherichia coli using […] as substrate preincubated with substrate for 5 mins followed by enzyme addition
# T2 sequence (P17706 whole entry): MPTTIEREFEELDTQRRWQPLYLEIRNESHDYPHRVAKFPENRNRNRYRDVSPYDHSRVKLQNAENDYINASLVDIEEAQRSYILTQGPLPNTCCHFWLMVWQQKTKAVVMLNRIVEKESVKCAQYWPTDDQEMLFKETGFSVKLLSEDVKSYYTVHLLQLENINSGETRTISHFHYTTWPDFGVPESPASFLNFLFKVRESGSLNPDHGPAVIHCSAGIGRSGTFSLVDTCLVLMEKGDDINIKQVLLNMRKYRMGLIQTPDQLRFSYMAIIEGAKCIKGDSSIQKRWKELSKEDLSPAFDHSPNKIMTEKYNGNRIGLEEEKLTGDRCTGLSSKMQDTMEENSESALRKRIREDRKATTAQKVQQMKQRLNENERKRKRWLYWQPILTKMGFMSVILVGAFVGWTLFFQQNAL
# [4] = biological target: T3, Tyrosine-protein phosphatase non-receptor type 9 (Homo sapiens, UniProt P43378); assay: Inhibition of recombinant human N-terminal GST-tagged MEG2 catalytic domain (285 to 593 residues) expressed in Escherichia coli using […] as substrate preincubated with substrate for 5 mins followed by enzyme addition
# T3 sequence (P43378 whole entry): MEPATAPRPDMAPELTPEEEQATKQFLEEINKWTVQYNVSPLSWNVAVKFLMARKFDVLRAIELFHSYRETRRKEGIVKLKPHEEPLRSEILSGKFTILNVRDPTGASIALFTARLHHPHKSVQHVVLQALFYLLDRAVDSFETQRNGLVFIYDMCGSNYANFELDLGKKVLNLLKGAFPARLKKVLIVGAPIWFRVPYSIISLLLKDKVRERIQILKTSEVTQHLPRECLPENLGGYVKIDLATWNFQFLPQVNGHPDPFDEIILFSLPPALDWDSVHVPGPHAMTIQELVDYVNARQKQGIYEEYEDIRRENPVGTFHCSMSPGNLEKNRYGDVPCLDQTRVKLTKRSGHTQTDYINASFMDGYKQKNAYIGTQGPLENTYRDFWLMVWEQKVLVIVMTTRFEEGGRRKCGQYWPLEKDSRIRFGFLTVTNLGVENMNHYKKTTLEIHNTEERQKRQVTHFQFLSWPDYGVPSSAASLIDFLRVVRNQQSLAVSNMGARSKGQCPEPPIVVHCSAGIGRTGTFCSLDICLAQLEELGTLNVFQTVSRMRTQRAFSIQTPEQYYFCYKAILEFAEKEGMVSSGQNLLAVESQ
# [5] = biological target: T4, Tyrosine-protein phosphatase non-receptor type 11 (Homo sapiens, UniProt Q06124); assay: Inhibition of recombinant human SHP2 expressed in Escherichia coli using […] as substrate preincubated with substrate for 5 mins followed by enzyme addition
# T4 sequence (Q06124 whole entry): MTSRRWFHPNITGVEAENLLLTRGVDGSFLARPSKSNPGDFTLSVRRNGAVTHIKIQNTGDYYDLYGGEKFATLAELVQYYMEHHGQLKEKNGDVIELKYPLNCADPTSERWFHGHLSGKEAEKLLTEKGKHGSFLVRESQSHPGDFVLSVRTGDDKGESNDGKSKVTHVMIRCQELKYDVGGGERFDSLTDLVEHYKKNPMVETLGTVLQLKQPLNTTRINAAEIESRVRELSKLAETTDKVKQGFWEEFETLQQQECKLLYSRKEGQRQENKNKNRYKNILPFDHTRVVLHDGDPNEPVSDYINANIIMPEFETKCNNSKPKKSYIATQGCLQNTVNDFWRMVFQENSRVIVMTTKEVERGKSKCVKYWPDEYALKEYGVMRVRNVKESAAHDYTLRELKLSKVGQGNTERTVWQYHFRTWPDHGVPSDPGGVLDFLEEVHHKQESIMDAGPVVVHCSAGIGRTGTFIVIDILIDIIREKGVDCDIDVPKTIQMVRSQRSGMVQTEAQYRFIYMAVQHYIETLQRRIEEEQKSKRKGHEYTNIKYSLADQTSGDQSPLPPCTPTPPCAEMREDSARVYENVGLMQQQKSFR
# [6] = biological target: T5, Tyrosine-protein phosphatase non-receptor type 1 (Homo sapiens, UniProt P18031); assay: Inhibition of recombinant human PTP1B expressed in Escherichia coli using […] as substrate preincubated with substrate for 5 mins followed by enzyme addition
# T5 sequence (P18031 whole entry): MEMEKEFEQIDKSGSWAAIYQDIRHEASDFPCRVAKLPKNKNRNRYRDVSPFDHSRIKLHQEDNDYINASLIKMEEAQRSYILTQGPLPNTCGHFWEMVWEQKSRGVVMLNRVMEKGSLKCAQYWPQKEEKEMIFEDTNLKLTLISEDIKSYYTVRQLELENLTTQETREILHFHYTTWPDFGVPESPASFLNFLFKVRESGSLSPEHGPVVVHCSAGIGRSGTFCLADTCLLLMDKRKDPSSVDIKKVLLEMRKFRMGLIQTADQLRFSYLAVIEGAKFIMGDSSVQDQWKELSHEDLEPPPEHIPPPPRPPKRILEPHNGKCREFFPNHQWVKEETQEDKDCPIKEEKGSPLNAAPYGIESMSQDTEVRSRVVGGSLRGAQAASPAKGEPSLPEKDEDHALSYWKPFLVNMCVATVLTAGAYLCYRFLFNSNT
# [7] = biological target: T5, Tyrosine-protein phosphatase non-receptor type 1; assay: Competitive inhibition of recombinant human PTP1B expressed in Escherichia coli using varying levels of […] as substrate by Lineweaver-burk plot analysis
# Homo sapiens [8] = organism: Homo sapiens; assay: Selectivity ratio of IC50 for recombinant human SHP2 expressed in Escherichia coli to IC50 for recombinant human PTP1B expressed in Escherichia coli
# Homo sapiens [9] = organism: Homo sapiens; assay: Selectivity ratio of IC50 for recombinant human N-terminal GST-tagged MEG2 catalytic domain (285 to 593 residues) expressed in Escherichia coli to IC50 for recombinant human PTP1B expressed in Escherichia coli
# Homo sapiens [10] = organism: Homo sapiens; assay: Selectivity ratio of IC50 for recombinant human N-terminal GST-tagged MEG1 catalytic domain (637 to 926 residues) expressed in Escherichia coli to IC50 for recombinant human PTP1B expressed in Escherichia coli
Compound,Ratio IC50 (Homo sapiens [1]),IC50 [2] [nM],IC50 [3] [nM],IC50 [4] [nM],IC50 [5] [nM],IC50 [6] [nM],Ki [7] [nM],Ratio IC50 (Homo sapiens [8]),Ratio IC50 (Homo sapiens [9]),Ratio IC50 (Homo sapiens [10])
CCOP(=O)(O)Cc1cc2c(O)c(c1)Sc1cc(CP(=O)(O)OCC)cc(c1O)Sc1cc(CP(=O)(O)OCC)cc(c1O)Sc1cc(CP(=O)(O)OCC)cc(c1O)S2,15,–,–,–,–,–,–,–,–,–
O=P(O)(Cc1cc2c(O)c(c1)S(=O)(=O)c1cc(CP(=O)(O)c3ccccc3)cc(c1O)S(=O)(=O)c1cc(CP(=O)(O)c3ccccc3)cc(c1O)S(=O)(=O)c1cc(CP(=O)(O)c3ccccc3)cc(c1O)S2(=O)=O)c1ccccc1,–,180,280,410,500,79,32,–,–,–
O=P(O)(Cc1cc2c(O)c(c1)Sc1cc(CP(=O)(O)c3ccccc3)cc(c1O)Sc1cc(CP(=O)(O)c3ccccc3)cc(c1O)Sc1cc(CP(=O)(O)c3ccccc3)cc(c1O)S2)c1ccccc1,15,5400,6800,5900,3700,380,140,10 to 18,10 to 18,10 to 18
O=P(O)(Cc1cc2c(O)c(c1)Cc1cc(CP(=O)(O)c3ccccc3)cc(c1O)Cc1cc(CP(=O)(O)c3ccccc3)cc(c1O)Cc1cc(CP(=O)(O)c3ccccc3)cc(c1O)C2)c1ccccc1,–,30000,20000,2400,4600,2800,–,–,–,–
